Laboratory results from patent publication US9845471B2, “Compositions and methods for treating pancreatic cancer” (Fred Hutchinson Cancer Research Center, priority 2013, dated 2017).

Tests used:
[1] = tested on: Runx3; experiment: Runx3 immunoblot after histone deacetylase inhibitor treatment; format: cell-based, murine; settings: KPD carcinoma cells; TSA at 0, 10, or 40 μM; 48 hours of treatment
Description: To directly test of this potential involvement of Hdac5 in the post-translational control mechanism of Runx3, a histone deacetylase inhibitor was used to determine whether Runx3 levels increased when deacetylation of Runx3 by Hdac5 was minimized or abrogated (i.e., whether the acetylation level of Runx3 does in fact affect physiologic degradation). Briefly, cells (4×10^5) were plated in 60 cc dishes and trichostatin A (TSA) (Tocris Biosciences, MO, USA), an Hdac5 inhibitor, was added at 0, 10, or 40 μM at 24 hours. Total RNA or whole cell lysates were prepared as described herein after 48 hours of treatment, and the latter resolved on 4-12% Bis-Tris gels, transferred to PVDF and probed with Runx3 antibody.

[2] = tested on: Panc-1 cells; experiment: Scratch wound migration assay, Panc-1; format: cell-based, human
Description: (§1) In addition to examining EMT, carcinoma cells were examined for their ability to migrate. For migration assays, cells were first incubated in the presence or absence of TGFβ (5 ng/ml) for 60 hours to achieve growth arrest (in order to separate out effects of proliferation rather than migration; see Izeradjene et al., 2007), then serum starved for 8 hours. Confluent cultures were scratched with a 20 μl pipette tip to generate a wound in three horizontal stripes per well; each experimental condition was performed in triplicate wells. All experiments were conducted in triplicate at least 3 independent times on at least 2 different cell lines from each genetic background. A minimum of six points across each wound were assessed independently by two investigators at the indicated time intervals for the presence of cells within the expanse. Representative photographs were taken from a minimum of 6-8 separate high power fields. For all assays, media was replaced every 24 hours with or without TGFβ and photographed every 24 hours.
(§2) As an initial analysis, the human pancreas cancer cell lines were tested in the scratch wound migration assay described herein. The basal levels of RUNX3 in these human PDA cell lines correlated with their migratory potential, as MiaPaCa-2 cells migrated far less well than CFPAC-1 and Panc-1 cells (FIG. 9B). […]

[3] = tested on: Panc-1 cells; experiment: Pulmonary metastasis assay in NOD/SCID mice; format: in vivo
Description: (§3) Purified KP and KPD carcinoma cells were also injected into the circulation of immunocompromised mice and scored for their ability to form pulmonary metastases. Briefly, murine cells were studied in a classical tail vein metastasis assay in nude mice (Athymic NCr-nu/nu). At least 3 animals were injected (1×10^5 or 1×10^6 cells/injection, depending on the experiment) for each independently derived cell line and all experiments were performed at least twice. […] Metastatic disease burdens were assessed as a ratio of cross-sectional area occupied by tumor to whole lung area using ImageJ software (NIH).
(§4) Human RUNX3 was cloned into pBABE hygromycin vector and stable RUNX3 expressing HEK293T cells were prepared using a similar protocol to that used to make the murine version. Also, shRNA sequences targeting human RUNX3 to knock down expression were procured in pGIPZ vectors (Open Biosystems). High-titer lentivirus was made and PDA cells were infected and selected for stable expression of the […] shRNA (SEQ ID NO.: 20, CGGCAGAAGCUGGAGGACC). Knockdown was confirmed by qRT-PCR.
To determine whether overexpression of RUNX3 in human PDA cells also promotes metastasis, pulmonary metastasis assays were performed using NOD/SCID mice.

[4] = tested on: COL6A1; experiment: COL6A1 expression by qRT-PCR; format: cell-based, human; settings: shRUNX3 transfected Panc-1 cells vs scrambled
Description: as §4
Transcript levels in Runx3-overexpressing carcinoma cells were determined using qRT-PCR as described herein. The Spp1 mouse forward and reverse primers used were SEQ ID NO.:5 ([…]) and SEQ ID NO.:6 ([…]), respectively; the Col6A1 mouse forward and reverse primers were SEQ ID NO.:7 (CTGCTGCTACAAGCCTGCT) and SEQ ID NO.:8 (CTGCTGCTACAAGCCTGCT), respectively; and the COL6A1 human forward and reverse primers were SEQ ID NO.:9 ([…]) and SEQ ID NO.:10 ([…]), respectively.

[5] = tested on: CFPAC-1 cells; experiment: Scratch wound migration assay, CFPAC-1; format: cell-based, human; settings: CFPAC1 cells
Description: as §1, §2

[6] = tested on: Runx3 complexes with Smad2 and Smad4; experiment: Smad2 immunoprecipitation of Runx3 complexes, KP; format: cell-based, murine; settings: KP cells, incubated with TGFβ prior to lysis
Description: (§5) To examine whether the transcriptional activity of Runx3 was exercised in complex with Smad4/Dpc4, immunoprecipitation assays were performed. Briefly, cells were lysed by sonication in 20 mM HEPES (pH 7.5), 400 mM KCl, 5% Glycerol, 5 mM EDTA, 0.4% Np40, supplemented with 1×protease inhibitor (Sigma, MO, USA), phosphotase inhibitor cocktails I and II (Sigma, MO, USA), and the lysates cleared by centrifugation. Extracts were diluted to 20 mM HEPES (pH 7.8), 50 mM KCl, 5% Glycerol, 2.5 mM MgCl2, 0.05% NP40 and incubated with Smad2 antibody (2.5 μg/ml from AbCam, Cambridge Mass., USA) and Protein A-Sepharose beads for 4 hours at 4° C. Beads were washed and co-purified proteins liberated in boiling Laemmli buffer and analyzed by immunoblot with the appropriate primary antibody. ExactaCruz secondary antibodies (Santa Cruz biotechnology) were used to reduce background from IgG.

[7] = tested on: Runx3 complexes with Smad2 and Smad4; experiment: Smad2 immunoprecipitation of Runx3 complexes, KPD; format: cell-based, murine; settings: KPD cells, incubated with TGFβ prior to lysis
Description: as §5

[8] = tested on: KPD PDA cells; experiment: EMT immunofluorescence (actin stress fibers, E-cadherin), KPD; format: cell-based, murine
Description: First, KPD pancreas cancer cells were probed by immunofluorescence for their ability to undergo epithelial-to-mesenchymal transition (EMT), a program of morphological and molecular changes implicated in the metastatic phenotype. Briefly, cells were grown on glass cover slips and treated for 72 hours in the presence or absence of TGFβ (5 ng/ml); media was replaced every 24 hours. For E-cadherin immunofluorescence, cells were fixed in ice cold methanol:acetone (1:1) for 15 minutes. For F-actin IF, cells were fixed in 4% paraformaldehyde for 30 minutes at RT followed by brief rinse in 0.15M glycine to quench the PFA. After fixation, the cells were washed with PBS and blocked for 1 hour at RT with 2% fatty acid-free BSA/2.5% goat serum. Cells were incubated with E-cadherin primary antibody (1:200, BD Biosciences) or Alexafluor488 F-actin (1:1000) for 1 hour at RT. Alexafluor 488 secondary antibody was used to visualize E-cadherin antibody. Cells were counterstained with DAPI and the slips mounted with Prolong Gold Anti-fade (Invitrogen, CA, USA). Images were acquired using a Nikon Eclipse 80i microscope with NIS Elements Software (Nikon, v3.1).

[9] = tested on: KP PDA cells; experiment: EMT immunofluorescence (actin stress fibers, E-cadherin), KP; format: cell-based, murine
[10] = tested on: KPD cells; experiment: Cell proliferation assay; format: cell-based, murine; settings: TGFβ 5 ng/ml
Description: For immunocytochemistry, the primary antibody used was Ki-67 (1:25, Dako, Calif., USA), which is a marker of proliferating cells. For cell proliferation assays, equal numbers of murine or human cells (30,000) were plated in triplicate for each cell line and incubated in the presence or absence of TGFβ (5 ng/ml, R&D Systems, USA). Cells were counted manually at 24 hour intervals. Data points represent the mean±SEM of triplicate determinations from at least 3 independent experiments. All experiments were conducted in triplicate at least 3 independent times on at least 2 different cell lines from each genetic background. Representative photographs were taken from a minimum of 6-8 separate high power fields. For all assays, media was replaced every 24 hours with or without TGFβ and photographed every 24 hours.

[11] = tested on: MiaPaCa-2 cells; experiment: Scratch wound migration assay, MiaPaCa-2; format: cell-based, human; settings: TGFβ
Description: as §1, §2

[12] = tested on: KP primary carcinoma cells; experiment: Scratch wound migration assay, KP; format: cell-based, murine
Description: as §1, with “For all assays, media was replaced every 24 hours with or without TGFβ and photographed every 24 hours.” left out
(§6) Dpc4 expression was knocked down using a short hairpin RNA (shRNA) sequence (GAUUAACACUGCAGAGUAA, SEQ ID NO.: 19) targeting murine DPC4 procured in a pGIPZ vector (Open Biosystems). […] DPC4 transcript levels in murine cell lines were analyzed by qRT-PCR using the Taq-man assay per the manufacturer's recommendations (Applied Biosystems, CA, USA) with GAPHD as an internal control.

[13] = tested on: KPD primary carcinoma cells; experiment: Scratch wound migration assay, KPD; format: cell-based, murine
Description: as §1, with “For all assays, media was replaced every 24 hours with or without TGFβ and photographed every 24 hours.” left out
as §6

[14] = tested on: KPD cells; experiment: Tail vein pulmonary metastasis assay in nude mice, KPD cells; format: in vivo, nude mice (Athymic NCr-nu/nu); settings: KPD cells with complete knockdown of Dpc4, tail vein injection
Description: as §3
as §6, with “Biosystems). A control sequence (scrambled, scr) was used as a negative control. High-titer lentivirus was made and PDA cells were infected and selected for stable expression of the DPC4-specific shRNA. Knockdown was confirmed by qRT-PCR.” for “Biosystems).”

[15] = tested on: Runx3; experiment: Runx3 immunoblot after targeted depletion of Smad4; format: cell-based, murine; settings: KPD cells; converse of the increase seen with Smad4 over-expression
Description: For immunoblot analysis, whole cell lysates were prepared using 1×RIPA buffer (Millipore, CA, USA) supplemented with 1×protease inhibitor (Sigma, MO, USA) and phosphotase inhibitor cocktails I and II (Sigma, MO, USA). For immunoblot experiments, 20 μg (murine) or 30 μg (human) whole cell protein lysate were separated on a 4-12% Bis-tris gel system (Invitrogen, CA, USA) and transferred to PVDF membrane (Millipore, CA, USA). Primary antibodies used were Dpc4, p16, p19, Actin (all at 1:2000, Santa Cruz, Calif., USA), and p53 (1:1000, Vector Lab, CA, USA).
(§7) Dpc4 expression was knocked down using a short hairpin RNA (shRNA) sequence (GAUUAACACUGCAGAGUAA, SEQ ID NO.: 19) targeting murine DPC4 procured in a pGIPZ vector (Open Biosystems). A control sequence (scrambled, scr) was used as a negative control. High-titer lentivirus was made and PDA cells were infected and selected for stable expression of the DPC4-specific shRNA. Knockdown was confirmed by qRT-PCR. Briefly, total RNA was reverse transcribed using the high capacity cDNA synthesis kit (Applied Biosystems, CA, USA) and qRT-PCR performed using SYBER green supermix (Bio-Rad, VA, USA) on a CFX-96 thermal cycler. […] DPC4 transcript levels in murine cell lines were analyzed by qRT-PCR using the Taq-man assay per the manufacturer's recommendations (Applied Biosystems, CA, USA) with GAPHD as an internal control.

[16] = tested on: KP cells; experiment: Tail vein pulmonary metastasis assay in nude mice, KP cells; format: in vivo, nude mice (Athymic NCr-nu/nu); settings: KP cells with Dpc4 extinguished, tail vein injection
Description: as §3
as §7, with “qRT-PCR.” for “qRT-PCR. Briefly, total RNA was reverse transcribed using the high capacity cDNA synthesis kit (Applied Biosystems, CA, USA) and qRT-PCR performed using SYBER green supermix (Bio-Rad, VA, USA) on a CFX-96 thermal cycler.”

With CC(/C=C/C(=O)NO)=C\[C@@H](C)C(=O)c1ccc(N(C)C)cc1 [TSA, trichostatin A] the “levels of Runx3 (immunoblot)” value [1] was “raise levels of Runx3 to approximately those found in KP cells”.
In the case of “shRUNX3: shRNA targeting human RUNX3 (SEQ ID NO.: 20, CGGCAGAAGCUGGAGGACC) in pGIPZ vector, delivered by lentivirus”, the migration ([2]; stable RUNX3-specific shRNA) is reported as “inhibited their migration”, the liver weights ([3]; NOD/SCID mice injected with RUNX3 knockdown Panc-1 cells, n=3) is reported as 0.53 ± 0.06 g and the “ability to seed and support secondary metastases to the liver” value ([3]; RUNX3-depleted Panc-1 cells in NOD/SCID mice) is reported as “considerably decreased”. The “number of lung metastases” value ([3]; RUNX3-knockdown vs control Panc-1 cells in NOD/SCID mice) was “comparable number of lung metastases”, the COL6A1 transcript levels [4] was “reduces COL6A1 transcript levels” and the migration ([5]; stable RUNX3-specific shRNA) was “inhibited their migration”.
For TGFβ, the Runx3/Smad2/Smad4 complex formation [6] was “favor complex formation”, the Runx3/Smad2/Smad4 complex formation [7] was “inhibit it” and the migration ([2]; TGFβ) was “promoted or left unaffected”. The migration ([5]; TGFβ) was “promoted or left unaffected”, the “EMT (actin stress fibers, surface E-cadherin)” value ([8]; KPD PDA cells, TGFβ 5 ng/ml, 72 hours) was “EMT is essentially intact” and the EMT ([9]; TGFβ 5 ng/ml, 72 hours) was “readily underwent TGFβ-induced EMT”. For the same compound, the “growth arrest (proliferation)” value [10] was “only partially growth-arrested”, the migration [11] was “modestly inhibited the migration” and the migration ([12]; TGFβ 5 ng/ml) was “stimulated”. The migration ([13]; TGFβ 5 ng/ml) was “did not respond in kind”.
In the case of “shDpc4: short hairpin RNA (GAUUAACACUGCAGAGUAA, SEQ ID NO.: 19) targeting murine DPC4 in a pGIPZ vector”, the “EMT in response to TGFβ” value ([8]; KPD carcinoma cells, complete loss of Dpc4 expression by shRNA) is reported as “some morphological features of EMT in response to TGFβ also persisted”, the metastatic potential [14] is reported as “enhanced their metastatic potential” and the “EMT in response to TGFβ” value ([9]; late ablation of Dpc4 by shRNA) is reported as “did not completely prevent EMT”. The “Runx3 levels (immunoblot)” value [15] was “had the converse effect”, the migration ([12]; Dpc4 depleted by shRNA) was “migration increased slightly” and the metastatic potential [16] was “did not diminish their already considerable metastatic potential”. For the same compound, the basal migratory behavior ([13]; complete ablation of Dpc4 expression by shRNA) was “increased their basal migratory behavior modestly”.
